Measured values reported in PubChem BioAssay AID179 (DTP/NCI, 2004).
Calls of active or inactive are those of the source.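 How the source made its calls: active means compounds giving half or more protection of infected cells from virus-caused growth loss, again on retest; inactive means the rest.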 Where a SMILES comes first, the peptide text is derived from it. [ ]: non-standard residue; d: D form. The star is where a group is joined. ξ: configuration not given here. ξPhe(4-NO2) = NC(Cc1ccc([N+](=O)[O-])cc1)C(=O)O; Boc = CC(C)(C)OC(=O)*; OBn = c1ccc(CO*)cc1

System: CEM cells HIV-1 protection, formazan growth assay
Assay: NCI AIDS Antiviral Assay
Conditions: for IC50: measured here: growth of uninfected CEM cells
Summary of the method: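 Protection of CEM cells against HIV-1 was scored from cell growth (soluble formazan) across five concentrations, with parallel uninfected cells. Lack of protection may reflect toxicity.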

| SMILES | outcome | EC50 [µM] | IC50 [µM] |
| --- | --- | --- | --- |
| COc1cccc(/C=N/[N-]C(N)=O)c1[O-].[Ni+2].[OH3+].c1cnc2c(c1)ccc1cccnc12 | inactive | – | – |
| CC(C)CCC[C@@H](C)[C@H]1CC[C@H]2[C@@H]3CC[C@H]4C[C@@H](CCC=C(c5cc(Cl)c(O)c(C(=O)O)c5)c5cc(Cl)c(O)c(C(=O)O)c5)CC[C@]4(C)[C@H]3CC[C@]12C | – | 37.2 | 295 |
| Cc1ccccc1C(C#N)/C(=N/NC(N)=S)C(=O)Nc1c(C)cccc1C (stereo not drawn) | – | > 245 | 224 |
| COC(=O)/C(=C/c1ccc(OC)cc1)C(C(=O)O)=C1CCCC1 | – | > 158 | – |
| COC(=O)[C@@H]1COC(=O)N1 | – | > 200 | > 200 |
| COC(=O)c1ccc(C)cc1C1CN=NC12Cc1c(C)cccc1C2=O (stereo not drawn) | – | > 200 | > 200 |
| COc1cc2ccc(C(=O)NCCCNC(=O)c3ccc4cc(OC)c(OC)cc4c3)cc2cc1OC | – | 126 | > 200 |
| CN1CCCC2(CCCc3ccccc32)C1 (stereo not drawn) | – | > 1000 | 257 |
| O=C(CCC(=O)C(C(=O)c1ccccc1)c1ccccc1)Nc1cccc(C(F)(F)F)c1 (stereo not drawn) | inactive | – | – |
| CCOC(=O)CC1CCN(C(=O)c2ccccc2)C2Cc3c([nH]c4ccccc34)C12C[N+](=O)[O-] (stereo not drawn) | – | > 200 | 85.1 |
| CCC/C(Cl)=N\OC(=O)Nc1ccc(F)c([N+](=O)[O-])c1 | – | > 200 | 9.12 |
| COC(=O)N/N=C/c1oc(-c2ccccc2)c(-c2ccccc2)c1[N+](=O)[O-] | – | > 61.7 | > 61.7 |
| COc1cc(/C=C2/N=C(c3ccccc3)N(C3=NNC4(C(=O)N3)c3ccccc3-c3ccccc34)NC2=O)ccc1O | – | > 100 | 75.9 |
| Cc1nc2ccccc2c(=O)n1NC(=S)NC1CCCCC1 | – | > 4.57 | > 4.57 |
| CCN(C(C)=N)c1ccccc1 | – | > 295 | 67.6 |
| NC(=O)C(=CN1CC(=O)NC1=S)C(N)=O | – | > 200 | > 200 |
| O=S1(=O)Oc2cccc3cccc1c23 | inactive | – | – |
| CC(C)(C)OC(=O)NC(Cc1ccc([N+](=O)[O-])cc1)C(=O)NCC(=O)OCc1ccccc1 (stereo not drawn) (Boc-[ξPhe(4-NO2)]-Gly-OBn) | – | > 200 | 33.1 |
| O=C(OCc1ccccc1)N1CC(O)C2OC3OC4(CCCCC4)OC3C21 (stereo not drawn) | – | > 200 | 170 |
| NC(=O)C1CCCN1C(=O)N(CCCl)N=O (stereo not drawn) | – | > 200 | > 200 |
| Oc1ccc(Cl)cc1Sc1cc(Cl)ccc1O | – | > 200 | 7.41 |
| O=C1c2nn(-c3ccccc3)nc2C(c2ccccc2)N1c1ccccc1 (stereo not drawn) | – | > 14.8 | > 14.8 |

| SMILES | outcome | EC50 [µM] | IC50 [µM] |
| --- | --- | --- | --- |
| c1ccc(Cn2cc(CCc3ccncc3)c3ccccc32)cc1 | – | > 200 | 28.2 |
| C=CCN1C(=O)C(c2ccccc2)(c2ccccc2)NC1=S | – | > 85.1 | > 85.1 |
| O=[N+]([O-])/C(Cl)=C(\Nc1ccccc1)C(Cl)=C(Cl)Cl | – | > 200 | 32.4 |
| CN(C)CCCNC(=O)c1cc(NC(=O)c2cc(NC(=O)c3cc(N4C(=O)c5ccccc5C4=O)cn3C)cn2C)cn1C | – | > 81.3 | 57.5 |
| Cn1c(=O)[nH]c2nccnc2c1=O | – | > 200 | > 200 |
| CCCCCCCCCCCCCOC(=O)CC(C(=O)OCCCCCCCCCCCCC)S(=O)(=O)O (stereo not drawn) | – | > 200 | 102 |
| CC(=O)[O-].[Ni].c1ccc(/C(=N\Nc2ccccn2)c2ccccn2)cc1 | inactive | – | – |
| Cc1nn(-c2ccc([N+](=O)[O-])cc2)c2c1C(C)(C)C(C#N)=C(N)O2 | – | > 200 | > 200 |
| O=[N+]([O-])c1cccc(C2=NON(c3ncccn3)C3N=CC=CN23)c1 (stereo not drawn) | – | > 5.89 | > 5.89 |
| Cc1nc2nn(C)cc2c(=O)n1/N=C/c1ccccc1 | – | > 200 | > 200 |
| CCOC(=O)C1N(S(=O)(=O)c2ccc(C)cc2)CCC12C(c1ccc(OC)cc1)NC1CCCCC12 (stereo not drawn) | inactive | – | – |
| O=C(n1c(=O)n(-c2ccc([N+](=O)[O-])cc2)c(=O)n1C(=O)C(Cl)(Cl)Cl)C(Cl)(Cl)Cl | – | > 200 | > 200 |
| O=c1cc(-c2ccc(O)cc2)oc2cc(O)cc(O)c12 | – | > 55 | 20.4 |
| CC(=O)Oc1c2c(c(O)c3ccccc13)C(n1cnc3c(ncn3C3OC(CO)C4OC(C)(C)OC43)c1=N)CCC2 (stereo not drawn) | – | > 45.7 | 12.9 |
| O=C1NC2CC1C(O)C2O (stereo not drawn) | – | > 200 | > 200 |
| CCCCCCCCCCC(=O)CC(=O)c1c(O)cccc1O | inactive | – | – |
| CCOC(=O)c1cc2c(nc1NCc1ccccc1)C(=O)CCCC2 | – | > 200 | 19.1 |
| CSc1nc(NC2OCC(OC(C)=O)C(OC(C)=O)C2OC(C)=O)c2c(n1)OCC2=O (stereo not drawn) | inactive | – | – |
| CCN(CC)C(=O)c1cc([N+](=O)[O-])c(=O)n2c1[nH]c1ccccc12 | – | > 200 | 151 |
| CC1(C)C(=O)N2C(=O)CC(=O)N2C1=O | – | > 457 | > 457 |
| CC1=CC(=O)N(n2c(-c3ccccc3)n[nH]c2=O)C1=O | – | > 200 | > 200 |
| O=C1CC(c2ccco2)C2(C(=O)CCCC2=O)C(c2ccco2)C1 (stereo not drawn) | – | > 100 | > 100 |

| SMILES | outcome | EC50 [µM] | IC50 [µM] |
| --- | --- | --- | --- |
| CCOC1(NC(=O)N(C)C)C2CCCCC21 (stereo not drawn) | – | > 200 | > 200 |
| Cc1cc(-c2ccco2)c(C#N)c(=S)n1C1OC(CO)C(O)C(O)C1O (stereo not drawn) | – | > 200 | > 200 |
| CC(=O)OC[C@]12[C@H](OC(C)=O)[C@H](OC(C)=O)[C@@H]3C(O)[C@@]14OC3(C)COC(=O)c1cccnc1CCC(C)C(=O)OC([C@H](OC(C)=O)[C@@H]2OC(=O)c1ccccc1)[C@]4(C)O (stereo partly drawn) | – | > 30.2 | > 30.2 |
| NC1=Nc2cc(C(F)(F)F)ccc2Sc2nc3ccccc3n21 | – | > 200 | – |
| CS(=O)(=O)N(CCC#N)c1ccc(C=O)cc1 | – | > 102 | > 102 |
| O=C(Nc1ccc(C(F)(F)F)cc1[N+](=O)[O-])C(=O)C1NC(=S)NC1=O (stereo not drawn) | – | > 95.5 | > 95.5 |
| O=c1cc(O)c2ccccc2o1 | – | > 1550 | 617 |
| Cn1c(SCc2ccc(F)cc2)nnc1C12CC3CC(CC(C3)C1)C2 | – | > 200 | 105 |
| CCCN(CCC)C(=S)S | – | > 200 | > 200 |
| Clc1cc(Cl)cc(Nc2nc3ccccc3nc2-c2cccs2)c1 | – | > 10 | > 10 |
| Cn1c(=N)n(CC(=O)NC23CC4CC(CC(C4)C2)C3)c2ccccc21 | – | > 347 | 66.1 |
| COc1ccc(N=C2[Se]C(=NC(=O)c3ccccc3)N(c3ccc(OC)cc3)C2=Nc2ccc(OC)cc2)cc1 | – | > 200 | 102 |
| Cc1c(CN)c(C)c(CN)c(C)c1CN | – | > 200 | 97.7 |
| O=C(c1nc2ccc([N+](=O)[O-])cc2[nH]c1=O)C(O)c1ccc2c(c1)OCO2 (stereo not drawn) | – | > 676 | 245 |
| CC[P+](C)(Cc1ccccc1)c1ccccc1 (stereo not drawn) | – | 0.0631 | 81.3 |
| Cc1cc(C)c2c(c1)CC2N (stereo not drawn) | – | > 1350 | 490 |
| CC1CCCN1c1ccnc2cc(Cl)ccc12 (stereo not drawn) | – | > 1000 | 288 |
| C/C(Cl)=N\OC(=O)Nc1ccc([N+](=O)[O-])cc1 | – | > 200 | 10.5 |
| CCCCCCC(N)(CCCCCC)C(=O)Nn1c(C)ccc1C | – | > 200 | 16.2 |
| c1ccc(CN2CCC3(CC2)SSC2(CCN(Cc4ccccc4)CC2)SS3)cc1 | – | > 100 | 64.6 |
| Oc1cc(O)c2c(c1)OC(c1ccc(O)c(O)c1)C(OC1(c3cc(O)c(O)c(O)c3)Oc3cc(O)cc(O)c3C(O)C1O)C2 (stereo not drawn) | – | > 200 | 11.5 |
| N#CC1(C#N)C2(c3ccccc3)OC(c3ccccc3)(c3cc4ccccc4cc32)C1(C#N)C#N | inactive | – | – |

| SMILES | outcome | EC50 [µM] | IC50 [µM] |
| --- | --- | --- | --- |
| C=C1[C@@H]2O[C@@H]3CC(=O)[C@@H](O)[C@]2(C(=O)N1OC)[C@H]3/C=C/C | – | > 115 | > 115 |
| CCCC(=O)N/S(=N/S(=O)(=O)c1ccc(Cl)cc1)C(Cl)(Cl)Cl (stereo not drawn) | – | 162 | > 200 |
| O=C1NNC=Nc2ccc(cc2)S(=O)(=O)c2ccc(cc2)N=CNNC1=O | – | > 224 | 162 |
| C[C@@]1(O)CC[C@]2(C)C3CCCC3[C@H]12 (stereo partly drawn) | inactive | – | – |
| CCOC(=O)/C=C/c1ccc2c(c1)OC(CO)[C@H](c1ccc(O)c(OC)c1)O2 (stereo partly drawn) | – | > 339 | 77.6 |
| Cc1cccc(N2CC3CC4C=CC3(C2)O4)c1 (stereo not drawn) | – | > 200 | > 200 |
| CC12CCC(=O)N1c1cccnc1N2 (stereo not drawn) | – | > 1320 | 1120 |
| CC(C)(C)OC(=O)N/N=C(/N)Cc1ccc(Cl)cc1 | – | > 200 | 162 |
| COc1ccc(-c2ccccc2)c2[nH]c3c(c12)CCNC3=O | inactive | – | – |
| CC(=O)c1c(O)ccc(O)c1-n1nc(C)c([N+](=O)[O-])c1C | – | > 224 | > 224 |
| CN(C(=O)CCC(=O)O)c1ccccc1C(=O)O | – | > 200 | > 200 |
| O=c1oc2ccccc2cc1-c1ccccc1 | – | > 162 | > 162 |
| CC1N=C(SCc2ccc(Cl)cc2)N2C(C)N=C(SCc3ccc(Cl)cc3)N12 (stereo not drawn) | – | > 21.9 | > 21.9 |
| CC(C#N)Nc1ccc(Oc2ccc(C(C)(C)c3ccc(Oc4ccc(NC(C)C#N)cc4)cc3)cc2)cc1 (stereo not drawn) | – | > 200 | 13.5 |
| O=C(NCCOC(=O)CCCCCCCCC(=O)OCCNC(=O)NC(=O)c1cn(Cc2ccccc2)c(=O)[nH]c1=O)NC(=O)c1cn(Cc2ccccc2)c(=O)[nH]c1=O | – | > 43.7 | > 43.7 |
| c1nc2nc3c(cn2n1)CCCCC3 | – | > 200 | > 200 |
| CC[C@@]1(OC(=O)C(N)CCC(=O)O)C(=O)OCc2c1cc1n(c2=O)Cc2cc3ccccc3nc2-1 (stereo partly drawn) | – | > 10 | 0.0145 |
| c1c[se]c(-c2nc3ccccc3[nH]2)c1 | – | > 69.2 | > 69.2 |
| O=C1NC(=S)S/C1=C\c1ccc2c(c1)OCO2 | – | > 200 | 85.1 |
| OC1(c2cccc(Cl)c2)C2=NCCCN2c2ccccc21 (stereo not drawn) | inactive | – | – |
| CC(NC(=O)C(NC(=O)CNC(=O)OC(C)(C)C)C(C)C)C(=O)Oc1c(Cl)c(Cl)c(Cl)c(Cl)c1Cl (stereo not drawn) | – | > 200 | 29.5 |
| O=C1NC(=S)N/C1=C\c1ccccc1 | – | > 200 | 178 |
